We go through 5 compounds from US9115143B2, “Substituted indole derivatives as gamma secretase modulators” (Janssen Pharmaceuticals, Inc., priority 2011, dated 2015).

One series deals with Aβ38. Put plainly: In vivo efficacy B-2b: brain soluble Aβ38, MSD electrochemiluminescence multiplex. As to conditions: mouse brain soluble fraction, dose 30 mg/kg oral dosing, 4 h after dose; untreated control set at 100; read-out: Aβ38 (% vs Ctrl)_Mean. The text has this:
To determine whether acute administration of an Aβ38 increasing agents would increase Aβ38 levels in vivo, non-transgenic rodents, e.g. mice or rats were used. Animals treated with the Aβ38 increasing agents were examined and compared to those untreated or treated with vehicle and brain levels of soluble Aβ42, Aβ40, Aβ38, and Aβ37 were quantitated by MSD electrochemiluminescence detection technology. Treatment periods varied from hours (h) to days and were adjusted based on the results of the Aβ38 increase once a time course of onset of effect could be established.
A typical protocol for measuring Aβ38 increase in vivo is shown but it is only one of many variations that could be used to optimize the levels of detectable Aβ. For example, Aβ38 increasing agents were formulated in 20% of Captisol® (a sulfobutyl ether of β-cyclodextrin) in water or 20% hydroxypropyl β cyclodextrin. The Aβ38 increasing agents were administered as a single oral dose or by any acceptable route of administration to overnight fasted animals. After 4 h, the animals were sacrificed and Aβ38 levels were analysed.
(§1) Blood was collected by decapitation and exsanguinations in EDTA-treated collection tubes. Blood was centrifuged at 1900 g for 10 minutes (min) at 4° C. and the plasma recovered and flash frozen for later analysis. The brain was removed from the cranium and hindbrain. The cerebellum was removed and the left and right hemisphere were separated. The left hemisphere was stored at −18° C. for quantitative analysis of test compound levels. The right hemisphere was rinsed with phosphate-buffered saline (PBS) buffer and immediately frozen on dry ice and stored at −80° C. until homogenization for biochemical assays.
(§2) Mouse brains from non-transgenic animals were resuspended in 8 volumes of 0.4% DEA (diethylamine)/50 mM NaCl containing protease inhibitors (Roche-11873580001 or 04693159001) per gram of tissue, e.g. for 0.158 g brain, add 1.264 ml of 0.4% DEA. All samples were homogenized in the FastPrep-24 system (MP Biomedicals) using lysing matrix D (MPBio #6913-100) at 6 m/s for 20 seconds. Homogenates were centrifuged at 20800×g for 5 min and supernatants collected. Supernatants were centrifuged at 221.300×g for 50 min. The resulting high speed supernatants were then transferred to fresh eppendorf tubes. Nine parts of supernatant were neutralized with 1 part 0.5 M Tris-HCl pH 6.8 and used to quantify Aβ.
(§3) To quantify the amount of Aβ42, Aβ40, Aβ38, and Aβ37 in the soluble fraction of the brain homogenates, simultaneous specific detection of Aβ42, Aβ40, Aβ38, and Aβ37 was performed using MSD's electro-chemiluminescence multiplex detection technology. In this assay purified monoclonal antibodies specific for Abeta37 (JRD/Aβ37/3), Abeta38 (J&JPRD/Aβ38/5), Abeta40 (JRF/cAβ40/28), and Abeta42 (JRF/cAβ42/26) were coated on MSD 4-plex plates. Briefly, the standards (a dilution of synthetic Aβ42, Aβ40, Aβ38, and Aβ37) were prepared in 1.5 ml Eppendorf tube in Ultraculture, with final concentrations ranging from 10000 to 0.3 pg/m. The samples and standards were co-incubated with Sulfo-tag labelled JRF/rAβ/2 antibody to the N-terminus of Aβ as detector antibody. 50 μl of conjugate/sample or conjugate/standards mixtures were then added to the antibody-coated plate. The plate was allowed to incubate overnight at 4° C. in order to allow formation of the antibody-amyloid complex. Following this incubation and subsequent wash steps the assay was finished by adding read buffer according to the manufacturer's instructions (Meso Scale Discovery, Gaitherburg, Md.).
(§4) The SULFO-TAG emits light upon electrochemical stimulation initiated at the electrode. MSD Sector instrument SI6000 was used for signal read-out.
In this model a Aβ38 increase compared to untreated animals would be advantageous, in particular a Aβ38 increase with at least 10%, more in particular a Aβ38 increase with at least 20%. […]

Series [1] has as its system Aβ42. Put plainly: In vivo efficacy B-1b: brain soluble Aβ42, MSD electrochemiluminescence multiplex. Particulars: mouse brain soluble fraction, dose 30 mg/kg oral dosing, 4 h after dose; untreated control set at 100; read-out: Aβ42 (% vs Ctrl)_Mean.
Description: (§5) To determine whether acute administration of an Aβ42 lowering agent would reduce Aβ42 levels in vivo, non-transgenic rodents, e.g. mice or rats were used. Animals treated with the Aβ42 lowering agent were examined and compared to those untreated or treated with vehicle and brain levels of soluble Aβ42, Aβ40, Aβ38, and Aβ37 were quantitated by Meso Scale Discovery's (MSD) electrochemiluminescence detection technology. Treatment periods varied from hours (h) to days and were adjusted based on the results of the Aβ42 lowering once a time course of onset of effect could be established.
(§6) A typical protocol for measuring Aβ42 lowering in vivo is shown but it is only one of many variations that could be used to optimize the levels of detectable Aβ. For example, Aβ42 lowering compounds were formulated in 20% of Captisol® (a sulfobutyl ether of β-cyclodextrin) in water or 20% hydroxypropyl β cyclodextrin. The Aβ42 lowering agents were administered as a single oral dose or by any acceptable route of administration to overnight fasted animals. After 4 h, the animals were sacrificed and Aβ42 levels were analysed.
as §1, §2, §3, §4
In this model a Aβ42 lowering compared to untreated animals would be advantageous, in particular a Aβ42 lowering with at least 10%, more in particular a Aβ42 lowering with at least 20%. […]

The next series deals with Aβtotal. The series is described as follows: Screening for γ-secretase-modulating activity: Aβtotal in supernatant of SKNBE2 cells carrying hAPP 695 wild type (Alphalisa). Format: cell-based, human. Particulars: SKNBE2 human neuroblastoma cells carrying hAPP 695 wild type; overnight incubation; Alphalisa on supernatant. Summed up: (§7)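 SKNBE2 human neuroblastoma cells expressing wild-type hAPP 695 (10^4/well) were incubated overnight at 37 °C, 5% CO2 with compound at several concentrations. Supernatant Aβ42 and Aβtotal measured by AlphaLISA sandwich immunoassays; IC50 from 4-parameter fit of percent of untreated control versus log concentration.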

In another series the test system is Aβ40. Put plainly: In vivo efficacy B-1b/B-2b: brain soluble Aβ40, MSD electrochemiluminescence multiplex. Particulars: mouse brain soluble fraction, dose 30 mg/kg oral dosing, 4 h after dose; untreated control set at 100; read-out: Aβ40 (% vs Ctrl)_Mean.
Description: as §5, §6, §1, §2, §3, §4
The results are shown in Table 5 (dose 30 mg/kg oral dosing) (value for untreated animals as control (Ctrl) was set at 100): […]

Series [2] concerns Aβ42. The series is described as follows: Screening for γ-secretase-modulating activity: Aβ42 in supernatant of SKNBE2 cells carrying hAPP 695 wild type (Alphalisa). Particulars: SKNBE2 human neuroblastoma cells carrying hAPP 695 wild type; overnight incubation; Alphalisa on supernatant. Format: cell-based, human. Summed up:
as §7

As for `COc1c(C#N)ccc2[nH]c(-c3cn4c(n3)C(c3ccccc3Cl)OCC4)cc12` (centres unmarked) [Compound 50, 2-[8-(2-chlorophenyl)-5,6-dihydro-8H-imidazo[2,1-c][1,4]oxazin-2-yl]-4-methoxy-1H-indole-5-carbonitrile], the melting point stood at 254.3 °C. In addition, in the series on Aβ38, the response vs control in vivo at 30 mg/kg stood at 141%. The response vs control in vivo at 30 mg/kg with Aβ42 [1] came out at 43%. In the series on Aβtotal, this compound registered an IC50 greater than 10000 nM. In addition, in the series on Aβ40, the response vs control in vivo at 30 mg/kg amounted to 46%. The 50% inhibitory concentration (IC50) in the series with Aβ42 [2] turned out to be 31 nM.

For `COc1c(C#N)ccc2[nH]c(-c3cn4c(n3)C(c3c(C)cccc3F)OCC4)cc12` (centres unmarked) [Compound 138, 2-[8-(2-fluoro-6-methylphenyl)-5,6-dihydro-8H-imidazo[2,1-c][1,4]oxazin-2-yl]-4-methoxy-1H-indole-5-carbonitrile], the melting point was 297 °C. In addition, in the series on Aβ38, the response vs control in vivo at 30 mg/kg is 117%. The response vs control in vivo at 30 mg/kg in the series on Aβ42 [1] is 75%. In the series on Aβtotal, this compound returned an IC50 greater than 10000 nM. Besides, the response vs control in vivo at 30 mg/kg in the series on Aβ40 came to 90%. This compound displayed an IC50 in the series with Aβ42 [2] of 19 nM.

`COc1c(C#N)ccc2[nH]c(-c3nc4n(n3)CCOC4c3cccc(F)c3C)cc12` (centres unmarked) [Compound 147, 2-[8-(3-fluoro-2-methylphenyl)-5,6-dihydro-8H-[1,2,4]triazolo[5,1-c][1,4]oxazin-2-yl]-4-methoxy-1H-indole-5-carbonitrile] came in with a melting point of 240.4 °C. Further, the response vs control in vivo at 30 mg/kg in the series on Aβ38 came out at 160%. For the same compound, the response vs control in vivo at 30 mg/kg in the series with Aβ42 [1] was 67%. Further, in the series on Aβtotal, the half-maximal inhibitory concentration (IC50) is greater than 10000 nM. The response vs control in vivo at 30 mg/kg in the series on Aβ40 amounted to 79%. In the series with Aβ42 [2], this compound yielded an IC50 of 31 nM.

`COc1c(C#N)ccc2[nH]c(-c3cn4c(n3)C(c3cc(F)ccc3C)OCC4)cc12` (centres unmarked) [Compound 158, 2-[8-(5-fluoro-2-methylphenyl)-5,6-dihydro-8H-imidazo[2,1-c][1,4]oxazin-2-yl]-4-methoxy-1H-indole-5-carbonitrile] had a melting point of 280.1 °C. In addition, the response vs control in vivo at 30 mg/kg in the series with Aβ38 is 140%. The response vs control in vivo at 30 mg/kg with Aβ42 [1] was 66%. Moreover, the IC50 in the series on Aβtotal was greater than 10000 nM. In addition, the response vs control in vivo at 30 mg/kg in the series on Aβ40 came out at 87%. This compound came in with an IC50 with Aβ42 [2] of 23 nM.

As to `COc1c(C#N)ccc2[nH]c(-c3cn4c(n3)C(c3cc(C(F)(F)F)ccc3F)OCC4)cc12` (centres unmarked) [Compound 164, 2-[8-[2-fluoro-5-(trifluoromethyl)phenyl]-5,6-dihydro-8H-imidazo[2,1-c][1,4]oxazin-2-yl]-4-methoxy-1H-indole-5-carbonitrile], the response vs control in vivo at 30 mg/kg with Aβ38 is 141%; in the series with Aβ42 [1] it was 65%; in the series with Aβ40, 81%. For the same compound, the values for the IC50 in the series with Aβtotal and with Aβ42 [2] were greater than 10000 nM and 41 nM, respectively.
